Experimental data taken from US11000033B2, “Ketone or oxime compound, and herbicide” (NISSAN CHEMICAL CORPORATION, priority 2014, dated 2021).

Experiments:
Type in all cases: in vivo
Veronica persica [1] = assay: Test Example 4: herbicidal effect by soil treatment (symbol R); settings: for Herbicidal effect grade, R: Veronica persica: application herbicide amount 320 g/ha
How it was run: (§1)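 Seeds were sown in sterilized diluvial soil, covered with about 1.5 cm of soil, and the soil surface was sprayed with a water-diluted emulsion of the compound at a predetermined rate. Plants grew in a greenhouse at 25° C. to 30° C.; effects were scored visually 3 weeks after application.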

Digitaria ciliaris [2] = assay: Test Example 4: herbicidal effect by soil treatment (symbol F); settings: for Herbicidal effect grade, F: Digitaria ciliaris: application herbicide amount 320 g/ha
How it was run: as §1

Lolium multiflorum Lam. = assay: Test Example 4: herbicidal effect by soil treatment (symbol K); settings: for Herbicidal effect grade, K: Lolium multiflorum Lam.: application herbicide amount 320 g/ha
How it was run: as §1

Galium spurium = assay: Test Example 5: herbicidal effect by foliage application, plastic box (symbol Q); settings: 320 g/ha, 3 weeks after application
How it was run: (§2)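 Visual herbicidal score, taken three weeks post-application, of seedlings sprayed on the foliage with water-diluted emulsion at a predetermined amount; plants were 14 days old, greenhouse-raised at 25° C. to 30° C.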

beet [3] = assay: Test Example 4: effect on crop by soil treatment (symbol f); settings: for Effect on crop grade, f: beet: application herbicide amount 320 g/ha
How it was run: (§3)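 Crop seeds, among them rice, wheat, beet and rapeseed, were sown in sterilized diluvial soil and covered with about 1.5 cm of soil. Boxes were kept in a greenhouse at 25° C. to 30° C. for plant growth.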

Stellaria media [4] = assay: Test Example 4: herbicidal effect by soil treatment (symbol P); settings: for Herbicidal effect grade, P: Stellaria media: application herbicide amount 320 g/ha
How it was run: as §1

Apera spica-venti = assay: Test Example 5: herbicidal effect by foliage application, plastic box (symbol L); settings: 320 g/ha, 3 weeks after application
How it was run: as §2

Stellaria media [5] = assay: Test Example 5: herbicidal effect by foliage application, plastic box (symbol P); settings: 320 g/ha, 3 weeks after application
How it was run: as §2

[6] = tested on: Echinochloa crus-galli var. crus-galli; assay: Test Example 4: herbicidal effect by soil treatment (symbol H); settings: for Herbicidal effect grade, H: Echinochloa crus-galli var. crus-galli: application herbicide amount 320 g/ha
How it was run: as §1

[7] = tested on: directly sowed rice plant; assay: Test Example 3: effect on crop by foliage application, Wagner pot (symbol b); settings: application herbicide amount 320 g/ha; for b (directly sowed rice plant) effect on crop grade: Table 24
How it was run: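 Wagner pot (1/10000 are), alluvial soil, submerged 0.1–0.5 cm; sown E. crus-galli var. crus-galli, L. chinensis, C. difformis, rice; greenhouse 25–30 °C.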

rice plant = assay: Test Example 5: effect on crop by foliage application, plastic box (symbol b); settings: 320 g/ha, 3 weeks after application
How it was run: (§4)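 Diluvial soil, sterilized and boxed (21 × 13 × 7 cm), received spot-sown seed covered by about 1.5 cm soil; plants were then greenhouse-grown at 25–30° C.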

rice = assay: Test Example 4: effect on crop by soil treatment (symbol b); settings: for Effect on crop grade, b: directly sowed rice plant: application herbicide amount 320 g/ha
How it was run: as §3

corn = assay: Test Example 4: effect on crop by soil treatment (symbol c); settings: for Effect on crop grade, c: corn: application herbicide amount 320 g/ha
How it was run: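 Greenhouse culture at 25° C. to 30° C. followed sowing of seed in spots on sterilized diluvial soil with a soil cover close to 1.5 cm thick.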

Avena fatua = assay: Test Example 5: herbicidal effect by foliage application, plastic box (symbol I); settings: 320 g/ha, 3 weeks after application
How it was run: as §2

Digitaria ciliaris [8] = assay: Test Example 5: herbicidal effect by foliage application, plastic box (symbol F); settings: 320 g/ha, 3 weeks after application
How it was run: as §2

Abutilon theophrasti = assay: Test Example 5: herbicidal effect by foliage application, plastic box (symbol M); settings: 320 g/ha, 3 weeks after application
How it was run: as §2

Setaria viridis = assay: Test Example 5: herbicidal effect by foliage application, plastic box (symbol G); settings: 320 g/ha, 3 weeks after application
How it was run: as §2

wheat = assay: Test Example 5: effect on crop by foliage application, plastic box (symbol e); settings: 320 g/ha, 3 weeks after application
How it was run: as §4

Alopecurus myosuroides = assay: Test Example 4: herbicidal effect by soil treatment (symbol J); settings: for Herbicidal effect grade, J: Alopecurus myosuroides: application herbicide amount 320 g/ha
How it was run: as §1

Chenopodium album = assay: Test Example 5: herbicidal effect by foliage application, plastic box (symbol O); settings: 320 g/ha, 3 weeks after application
How it was run: as §2

rapeseed = assay: Test Example 4: effect on crop by soil treatment (symbol g); settings: for Effect on crop grade, g: rapeseed: application herbicide amount 320 g/ha
How it was run: as §3

beet [9] = assay: Test Example 5: effect on crop by foliage application, plastic box (symbol f); settings: 320 g/ha, 3 weeks after application
How it was run: as §4

soybean = assay: Test Example 4: effect on crop by soil treatment (symbol d); settings: for Effect on crop grade, d: soybean: application herbicide amount 320 g/ha
How it was run: as §3

Veronica persica [10] = assay: Test Example 5: herbicidal effect by foliage application, plastic box (symbol R); settings: 320 g/ha, 3 weeks after application
How it was run: as §2

Structure (SMILES): CON=C(CC1CC(O)=C(c2c(C)cc(C)cc2C)C1=O)c1ccc(F)cc1 (stereo not drawn) [1-133]
- R: Veronica persica, herbicidal effect grade (Veronica persica [1]; 320 g/ha): 0 (Herbicidal ratio of 5% or lower (almost no effect))
- F: Digitaria ciliaris, herbicidal effect grade (Digitaria ciliaris [2]; 320 g/ha): 4 (Herbicidal ratio of 70% or higher and lower than 90%)
- K: Lolium multiflorum Lam., herbicidal effect grade (Lolium multiflorum Lam.; 320 g/ha): 3 (Herbicidal ratio of 40% or higher and lower than 70%)
- Q: Galium spurium, herbicidal effect (criteria 0-5) (Galium spurium): 0 (Herbicidal ratio of 5% or lower (almost no effect))
- f: beet, effect grade on crop (beet [3]; 320 g/ha): 0 (Herbicidal ratio of 5% or lower (almost no effect))
- P: Stellaria media, herbicidal effect grade (Stellaria media [4]; 320 g/ha): 0 (Herbicidal ratio of 5% or lower (almost no effect))
- L: Apera spica-venti, herbicidal effect (criteria 0-5) (Apera spica-venti): 2 (Herbicidal ratio of 20% or higher and lower than 40%)
- P: Stellaria media, herbicidal effect (criteria 0-5) (Stellaria media [5]): 3 (Herbicidal ratio of 40% or higher and lower than 70%)
- H: Echinochloa crus-galli var. crus-galli, herbicidal effect grade ([6]; 320 g/ha): 4 (Herbicidal ratio of 70% or higher and lower than 90%)
- effect on crop b (directly sowed rice plant), grade 0-5 [7]: 0 (Herbicidal ratio of 5% or lower (almost no effect))
- b: directly sowed rice plant, effect on crop (criteria 0-5) (rice plant): 1 (Herbicidal ratio of 5% or higher and lower than 20%)
- b: directly sowed rice plant, effect grade on crop (rice; 320 g/ha): 0 (Herbicidal ratio of 5% or lower (almost no effect))
- c: corn, effect grade on crop (corn; 320 g/ha): 0 (Herbicidal ratio of 5% or lower (almost no effect))
- I: Avena fatua, herbicidal effect (criteria 0-5) (Avena fatua): 3 (Herbicidal ratio of 40% or higher and lower than 70%)
- F: Digitaria ciliaris, herbicidal effect (criteria 0-5) (Digitaria ciliaris [8]): 0 (Herbicidal ratio of 5% or lower (almost no effect))
- M: Abutilon theophrasti, herbicidal effect (criteria 0-5) (Abutilon theophrasti): 0 (Herbicidal ratio of 5% or lower (almost no effect))
- G: Setaria viridis, herbicidal effect (criteria 0-5) (Setaria viridis): 4 (Herbicidal ratio of 70% or higher and lower than 90%)
- e: wheat, effect on crop (criteria 0-5) (wheat): 0 (Herbicidal ratio of 5% or lower (almost no effect))
- J: Alopecurus myosuroides, herbicidal effect grade (Alopecurus myosuroides; 320 g/ha): 5 (Herbicidal ratio of 90% or more (almost completely withered))
- O: Chenopodium album, herbicidal effect (criteria 0-5) (Chenopodium album): 0 (Herbicidal ratio of 5% or lower (almost no effect))
- g: rapeseed, effect grade on crop (rapeseed; 320 g/ha): 0 (Herbicidal ratio of 5% or lower (almost no effect))
- f: beet, effect on crop (criteria 0-5) (beet [9]): 3 (Herbicidal ratio of 40% or higher and lower than 70%)
- d: soybean, effect grade on crop (soybean; 320 g/ha): 4 (Herbicidal ratio of 70% or higher and lower than 90%)
- R: Veronica persica, herbicidal effect (criteria 0-5) (Veronica persica [10]): 3 (Herbicidal ratio of 40% or higher and lower than 70%)

Structure (SMILES): CC(CC1CC(O)=C(c2c(C)cc(-n3cc(Cl)cn3)cc2C)C1=O)=NOCC(F)(F)F (stereo not drawn) [9-010]
- Herbicidal effect grade, R: Veronica persica (Veronica persica [1]): 0 (Herbicidal ratio of 5% or lower (almost no effect))
- Herbicidal effect grade, F: Digitaria ciliaris (Digitaria ciliaris [2]): 5 (Herbicidal ratio of 90% or more (almost completely withered))
- Herbicidal effect grade, K: Lolium multiflorum Lam. (Lolium multiflorum Lam.): 5 (Herbicidal ratio of 90% or more (almost completely withered))
- Q: Galium spurium, herbicidal effect grade (Galium spurium): 3 (Herbicidal ratio of 40% or higher and lower than 70%)
- Effect on crop grade, f: beet (beet [3]): 0 (Herbicidal ratio of 5% or lower (almost no effect))
- Herbicidal effect grade, P: Stellaria media (Stellaria media [4]): 0 (Herbicidal ratio of 5% or lower (almost no effect))
- L: Apera spica-venti, herbicidal effect grade (Apera spica-venti): 5 (Herbicidal ratio of 90% or more (almost completely withered))
- P: Stellaria media, herbicidal effect grade (Stellaria media [5]): 3 (Herbicidal ratio of 40% or higher and lower than 70%)
- Herbicidal effect grade, H: Echinochloa crus-galli var. crus-galli [6]: 5 (Herbicidal ratio of 90% or more (almost completely withered))
- b (directly sowed rice plant) effect on crop grade [7]: 5 (Herbicidal ratio of 90% or more (almost completely withered))
- b: directly sowed rice plant, effect on crop grade (rice plant): 5 (Herbicidal ratio of 90% or more (almost completely withered))
- Effect on crop grade, b: directly sowed rice plant (rice): 5 (Herbicidal ratio of 90% or more (almost completely withered))
- Effect on crop grade, c: corn (corn): 1 (Herbicidal ratio of 5% or higher and lower than 20%)
- I: Avena fatua, herbicidal effect grade (Avena fatua): 4 (Herbicidal ratio of 70% or higher and lower than 90%)
- F: Digitaria ciliaris, herbicidal effect grade (Digitaria ciliaris [8]): 5 (Herbicidal ratio of 90% or more (almost completely withered))
- M: Abutilon theophrasti, herbicidal effect grade (Abutilon theophrasti): 0 (Herbicidal ratio of 5% or lower (almost no effect))
- G: Setaria viridis, herbicidal effect grade (Setaria viridis): 5 (Herbicidal ratio of 90% or more (almost completely withered))
- e: wheat, effect on crop grade (wheat): 0 (Herbicidal ratio of 5% or lower (almost no effect))
- Herbicidal effect grade, J: Alopecurus myosuroides (Alopecurus myosuroides): 5 (Herbicidal ratio of 90% or more (almost completely withered))
- O: Chenopodium album, herbicidal effect grade (Chenopodium album): 3 (Herbicidal ratio of 40% or higher and lower than 70%)
- Effect on crop grade, g: rapeseed (rapeseed): 0 (Herbicidal ratio of 5% or lower (almost no effect))
- f: beet, effect on crop grade (beet [9]): 0 (Herbicidal ratio of 5% or lower (almost no effect))
- Effect on crop grade, d: soybean (soybean): 0 (Herbicidal ratio of 5% or lower (almost no effect))
- R: Veronica persica, herbicidal effect grade (Veronica persica [10]): 3 (Herbicidal ratio of 40% or higher and lower than 70%)

Structure (SMILES): CC#Cc1cc(C)c(C2=C(O)CC(CC(C)=NOCC(F)(F)F)C2=O)c(C)c1 (stereo not drawn) [9-011]
- Herbicidal effect grade, R: Veronica persica (Veronica persica [1]): 0 (Herbicidal ratio of 5% or lower (almost no effect))
- Herbicidal effect grade, F: Digitaria ciliaris (Digitaria ciliaris [2]): 5 (Herbicidal ratio of 90% or more (almost completely withered))
- Herbicidal effect grade, K: Lolium multiflorum Lam. (Lolium multiflorum Lam.): 5 (Herbicidal ratio of 90% or more (almost completely withered))
- Q: Galium spurium, herbicidal effect grade (Galium spurium): 1 (Herbicidal ratio of 5% or higher and lower than 20%)
- Effect on crop grade, f: beet (beet [3]): 0 (Herbicidal ratio of 5% or lower (almost no effect))
- Herbicidal effect grade, P: Stellaria media (Stellaria media [4]): 0 (Herbicidal ratio of 5% or lower (almost no effect))
- L: Apera spica-venti, herbicidal effect grade (Apera spica-venti): 5 (Herbicidal ratio of 90% or more (almost completely withered))
- P: Stellaria media, herbicidal effect grade (Stellaria media [5]): 0 (Herbicidal ratio of 5% or lower (almost no effect))
- Herbicidal effect grade, H: Echinochloa crus-galli var. crus-galli [6]: 5 (Herbicidal ratio of 90% or more (almost completely withered))
- b (directly sowed rice plant) effect on crop grade [7]: 5 (Herbicidal ratio of 90% or more (almost completely withered))
- b: directly sowed rice plant, effect on crop grade (rice plant): 5 (Herbicidal ratio of 90% or more (almost completely withered))
- Effect on crop grade, b: directly sowed rice plant (rice): 5 (Herbicidal ratio of 90% or more (almost completely withered))
- Effect on crop grade, c: corn (corn): 5 (Herbicidal ratio of 90% or more (almost completely withered))
- I: Avena fatua, herbicidal effect grade (Avena fatua): 5 (Herbicidal ratio of 90% or more (almost completely withered))
- F: Digitaria ciliaris, herbicidal effect grade (Digitaria ciliaris [8]): 5 (Herbicidal ratio of 90% or more (almost completely withered))
- M: Abutilon theophrasti, herbicidal effect grade (Abutilon theophrasti): 2 (Herbicidal ratio of 20% or higher and lower than 40%)
- G: Setaria viridis, herbicidal effect grade (Setaria viridis): 5 (Herbicidal ratio of 90% or more (almost completely withered))
- e: wheat, effect on crop grade (wheat): 5 (Herbicidal ratio of 90% or more (almost completely withered))
- Herbicidal effect grade, J: Alopecurus myosuroides (Alopecurus myosuroides): 5 (Herbicidal ratio of 90% or more (almost completely withered))
- O: Chenopodium album, herbicidal effect grade (Chenopodium album): 1 (Herbicidal ratio of 5% or higher and lower than 20%)
- Effect on crop grade, g: rapeseed (rapeseed): 4 (Herbicidal ratio of 70% or higher and lower than 90%)
- f: beet, effect on crop grade (beet [9]): 0 (Herbicidal ratio of 5% or lower (almost no effect))
- Effect on crop grade, d: soybean (soybean): 0 (Herbicidal ratio of 5% or lower (almost no effect))
- R: Veronica persica, herbicidal effect grade (Veronica persica [10]): 3 (Herbicidal ratio of 40% or higher and lower than 70%)
